Results published in patent US9969749B2, “Inhibitors of IRAK4 activity” (MERCK SHARP & DOHME CORP., priority 2014, dated 2018).

Target: IRAK4 (Homo sapiens (Human), UniProt Q9NWZ3)
Assay: IRAK4 Kinase Assay (IMAP fluorescence polarization)
Type: biochemical
Details: 0.5 nM GST tagged IRAK4, 100 μM ATP, 100 nM fluorescent peptide substrate RP7030, 30 minutes at 25° C.
Procedure: The kinase activity of IRAK4 is determined by its ability to catalyze the phosphorylation of a fluorescent polypeptide substrate. The extent of phosphorylation is measured using the IMAP technology (Molecular Devices) where the phosphorylated fluorescent substrate binds to the large M(III)-based nanoparticles which reduces the rotational speed of the substrate and thus increases its fluorescent polarization (FP).
20 μL reaction mixture contains 10 mM TriHCl, pH 7.2, 0.5 nM GST tagged IRAK4 (SignalChem), 100 nM fluorescent peptide substrate (RP7030, Molecular Devices), 100 μM ATP, 1 mM DDT, 1 mM MgCl2, and 0.01% Tween 20. The reaction is initiated by the addition of ATP. After incubation for 30 minutes at 25° C., 60 μL of Progressive IMAP Reagent (Molecular Devices) is added to stop the reaction. Change in RP7030's FP is determined by a FP reader (Analyst HT, LJL BioSystems).

Sequence of IRAK4 (Q9NWZ3 whole entry): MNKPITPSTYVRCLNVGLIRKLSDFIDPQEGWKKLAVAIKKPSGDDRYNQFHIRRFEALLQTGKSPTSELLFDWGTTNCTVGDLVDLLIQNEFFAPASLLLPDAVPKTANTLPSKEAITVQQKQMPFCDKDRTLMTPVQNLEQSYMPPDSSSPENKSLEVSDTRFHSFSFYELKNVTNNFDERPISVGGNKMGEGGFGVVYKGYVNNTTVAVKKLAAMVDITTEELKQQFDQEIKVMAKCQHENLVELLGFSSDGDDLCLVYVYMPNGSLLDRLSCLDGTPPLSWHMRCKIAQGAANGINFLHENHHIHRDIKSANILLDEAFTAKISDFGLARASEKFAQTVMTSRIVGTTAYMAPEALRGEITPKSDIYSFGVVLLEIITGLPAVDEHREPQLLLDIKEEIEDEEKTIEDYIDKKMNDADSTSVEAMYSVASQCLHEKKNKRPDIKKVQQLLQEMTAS

SMILES | IC50 [nM]
COc1cncc(-c2ccc3ncnc(N[C@H]4CC[C@H](N(C)C)CC4)c3c2)c1 [Example 1-51, trans-N′-[6-(5-methoxypyridin-3-yl)quinazolin-4-yl]-N,N-dimethylcyclohexane-1,4-diamine] | 25
Cc1c[nH]c(-c2ccc3ncnc(N[C@H]4CC[C@H](N5CCOCC5)CC4)c3c2)n1 [Example 2-22, 6-(4-methyl-1H-imidazol-2-yl)-N-[trans-4-(morpholin-4-yl)cyclohexyl]quinazolin-4-amine] | 492
N#Cc1n[nH]cc1-c1ccc2ncnc(N[C@H]3CC[C@H](N4CCOCC4)CC3)c2c1 [Example 2-10, 4-{4-[(trans-4-morpholin-4-ylcyclohexyl)amino]quinazolin-6-yl}-1H-pyrazole-3-carbonitrile] | 8
Cc1n[nH]cc1-c1ccc2ncnc(N[C@H]3CC[C@H](N4CCOCC4)CC3)c2c1 [Example 2-20, 6-(3-methyl-1H-pyrazol-4-yl)-N-[trans-4-(morpholin-4-yl)cyclohexyl]quinazolin-4-amine] | 22
N#Cc1cncc(-c2ccc3ncnc(N[C@H]4CC[C@H](N5CCOCC5)CC4)c3c2)c1 [Example 1-98, 5-(4-{[trans-4-(morpholin-4-yl)cyclohexyl]amino}quinazolin-6-yl)pyridine-3-carbonitrile] | 21
CCOC(C)n1cc(-c2ccc3ncnc(N[C@H]4CC[C@H](N(C)C)CC4)c3c2)cn1 (stereo partly drawn) [Example 1-14, trans-N′-{6-[1-(1-ethoxyethyl)-1H-pyrazol-4-yl]quinazolin-4-yl}-N,N-dimethylcyclohexane-1,4-diamine] | 1360
Cn1ncnc1-c1ccc2ncnc(N[C@H]3CC[C@H](N4CCOCC4)CC3)c2c1 [Example 2-27, 6-(1-methyl-1H-1,2,4-triazol-5-yl)-N-[trans-4-(morpholin-4-yl)cyclohexyl]quinazolin-4-amine] | 159
COc1cnccc1-c1ccc2ncnc(N[C@H]3CC[C@H](N(C)C)CC3)c2c1 [Example 1-38, trans-N′-[6-(3-methoxypyridin-4-yl)quinazolin-4-yl]-N,N-dimethylcyclohexane-1,4-diamine] | 71
COc1ccncc1-c1ccc2ncnc(N[C@H]3CC[C@H](N(C)C)CC3)c2c1 [Example 1-35, trans-N′-[6-(4-methoxypyridin-3-yl)quinazolin-4-yl]-N,N-dimethylcyclohexane-1,4-diamine] | 394
CN1CCOc2cc(-c3ccc4ncnc(N[C@H]5CC[C@H](N(C)C)CC5)c4c3)cnc21 [Example 1-57, trans-N,N-dimethyl-N′-[6-(4-methyl-3,4-dihydro-2H-pyrido[3,2-b][1,4]oxazin-7-yl)quinazolin-4-yl]cyclohexane-1,4-diamine] | 6730
Cc1onc(-c2ccccc2)c1-c1ccc2ncnc(N[C@H]3CC[C@H](N(C)C)CC3)c2c1 [Example 1-26, trans-N,N-dimethyl-N′-[6-(5-methyl-3-phenylisoxazol-4-yl)quinazolin-4-yl]cyclohexane-1,4-diamine] | 698
FC(F)(F)c1ncc(-c2ccc3ncnc(N[C@H]4CC[C@@H](N5CCOCC5)CC4)c3c2)cn1 [Example 1-90, N-[cis-4-(morpholin-4-yl)cyclohexyl]-6-[2-(trifluoromethyl)pyrimidin-5-yl]quinazolin-4-amine] | 169
CN(C)C1CCC(Nc2ncnc3ccc(-c4ccc(N)nc4)cc23)CC1 (stereo not drawn) [Example 1-11, cis or trans-N′-[6-(6-aminopyridin-3-yl)quinazolin-4-yl]-N,N-dimethylcyclohexane-1,4-diamine] | 36
CN(C)[C@H]1CC[C@H](Nc2ncnc3ccc(-c4cccc(C#N)c4)cc23)CC1 [Example 1-44, 3-(4-{[trans-4-(dimethylamino)cyclohexyl]amino}quinazolin-6-yl)benzonitrile] | 32
COc1ncc(-c2ccc3ncnc(N[C@H]4CC[C@H](N5CCOCC5)CC4)c3c2)cc1N [Example 1-71, 6-(5-amino-6-methoxypyridin-3-yl)-N-(trans-4-morpholin-4-ylcyclohexyl)quinazolin-4-amine] | 17
CN(C)C1CCC(Nc2ncnc3ccc(-c4ccncc4)cc23)CC1 (single isomer, unassigned) [Example 1-3, cis or trans-N,N-dimethyl-N′-[6-(pyridin-4-yl)quinazolin-4-yl]cyclohexane-1,4-diamine] | 2290

Stronger by IC50, values ahead:

IC50 [nM] | SMILES
2 | CNc1cncc(-c2ccc3ncnc(N[C@H]4CC[C@H](N5CCC[C@H](CN6CCOCC6)C5)CC4)c3c2)c1 [Example 5-11, 6-[5-(methylamino)pyridin-3-yl]-N-{trans-4-[(3R)-3-(morpholin-4-ylmethyl)piperidin-1-yl]cyclohexyl}quinazolin-4-amine]
< 0.5 | Oc1cncc(-c2ccc3ncnc(N[C@H]4CC[C@H](N5CCC(F)CC5)CC4)c3c2)c1 [Example 5-18, 5-(4-{[trans-4-(4-fluoropiperidin-1-yl)cyclohexyl]amino}quinazolin-6-yl)pyridin-3-ol]
1 | CNc1cc(-c2ccc3ncnc(N[C@H]4CC[C@H](N5CCO[C@H](C)C5)CC4)c3c2)cnc1F [Example 5-30, 6-[6-fluoro-5-(methylamino)pyridin-3-yl]-N-{trans-4-[(2R)-2-methylmorpholin-4-yl]cyclohexyl}quinazolin-4-amine]
1 | Nc1cc(-c2ccc3ncnc(N[C@H]4CC[C@H](N5CCOCC5)CC4)c3c2)cnc1F [Example 2-7, 6-(5-amino-6-fluoropyridin-3-yl)-N-(trans-4-morpholin-4-ylcyclohexyl)quinazolin-4-amine]
2 | CNc1cc(-c2ccc3ncnc(N[C@H]4CC[C@H](N5CCC(F)(F)CC5)CC4)c3c2)cnc1F [Example 5-27, N-[trans-4-(4,4-difluoropiperidin-1-yl)cyclohexyl]-6-[6-fluoro-5-(methylamino)pyridin-3-yl]quinazolin-4-amine]
< 0.5 | Oc1cc(-c2ccc3ncnc(N[C@H]4CC[C@H](N5CCC(F)CC5)CC4)c3c2)cnc1F [Example 5-13, 2-fluoro-5-(4-{[trans-4-(4-fluoropiperidin-1-yl)cyclohexyl]amino}quinazolin-6-yl)pyridin-3-ol]
1 | CNc1cc(-c2ccc3ncnc(N[C@H]4CC[C@H](N5C[C@@H](C)O[C@@H](C)C5)CC4)c3c2)cnc1F [Example 5-26, N-{trans-4-[(2R,6S)-2,6-dimethylmorpholin-4-yl]cyclohexyl}-6-[6-fluoro-5-(methylamino)pyridin-3-yl]quinazolin-4-amine]
1 | CS(=O)(=O)N1CCN([C@H]2CC[C@H](Nc3ncnc4ccc(-c5cnc(F)c(O)c5)cc34)CC2)CC1 [Example 5-14, 2-fluoro-5-[4-({trans-4-[4-(methylsulfonyl)piperazin-1-yl]cyclohexyl}amino)quinazolin-6-yl]pyridin-3-ol]
< 0.5 | Oc1cc(-c2ccc3ncnc(N[C@H]4CC[C@H](N5CCOCC5)CC4)c3c2)cnc1F [Example 2-30, 2-fluoro-5-(4-{[trans-4-(morpholin-4-yl)cyclohexyl]amino}quinazolin-6-yl)pyridin-3-ol]
3 | CNc1cncc(-c2ccc3ncnc(N[C@H]4CC[C@H](N5CCC(F)CC5)CC4)c3c2)c1 [Example 5-9, N-[trans-4-(4-fluoropiperidin-1-yl)cyclohexyl]-6-[5-(methylamino)pyridin-3-yl]quinazolin-4-amine]
